Source: patent publication US20090170878A1, “MACROCYCLIC COMPOUNDS USEFUL AS BACE INHIBITORS” (priority 2006, published 2009)

Biological target: T1, Human BACE (Homo sapiens, UniProt P56817)
T1 construct: Recombinant BACE (extracellular domain, expressed in baculovirus and purified using standard methods); made in house; host or cells: baculovirus expression system (insect cells)
Experiment: Test 1: Inhibition of Human BACE
Format: biochemical
Details: recombinant BACE extracellular domain, fluorescence-quenched APP-derived peptide substrate, pH 4.5
Description: Test 1: Inhibition of Human BACE
Recombinant BACE (extracellular domain, expressed in baculovirus and purified using standard methods) at 0.1 to 10 nM concentrations is incubated with the test compound at various concentrations for 1 hour at room temperature in 10 to 100 mM acetate buffer, pH 4.5, containing 0.1% CHAPS. Synthetic fluorescence-quenched peptide substrate, derived from the sequence of APP and containing a suitable fluorophore-quencher pair, is added to a final concentration of 1 to 5 μM, and the increase in fluorescence is recorded at a suitable excitation/emission wavelength in a microplate spectro-fluorimeter for 5 to 30 minutes in 1-minute intervals. IC50 values are calculated from percentage of inhibition of BACE-activity as a function of the test compound concentration.

T1 sequence (P56817 46-457 limits assumed): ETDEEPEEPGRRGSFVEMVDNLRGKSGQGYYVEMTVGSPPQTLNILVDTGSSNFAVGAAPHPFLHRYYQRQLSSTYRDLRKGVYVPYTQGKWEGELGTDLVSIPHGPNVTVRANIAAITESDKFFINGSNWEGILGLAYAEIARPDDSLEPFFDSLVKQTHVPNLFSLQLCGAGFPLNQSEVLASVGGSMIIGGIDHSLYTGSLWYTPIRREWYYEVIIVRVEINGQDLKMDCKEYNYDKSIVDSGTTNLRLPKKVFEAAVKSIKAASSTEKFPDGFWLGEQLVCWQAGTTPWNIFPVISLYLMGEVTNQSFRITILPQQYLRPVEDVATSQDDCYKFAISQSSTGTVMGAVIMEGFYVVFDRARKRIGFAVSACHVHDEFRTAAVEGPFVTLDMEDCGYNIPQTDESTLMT

`CC(C)c1cccc(C2(NC[C@@H](O)[C@@H]3C[C@H](C)CCCCCCCCC(=O)N(C)[C@@H](C)C(=O)N3)CC2)c1` [Example 1, (3S,14R,16S)-16-{(R)-1-Hydroxy-2-[1-(3-isopropyl-phenyl)-cyclopropylamino]-ethyl}-3,4,14-trimethyl-1,4-diaza-cyclohexadecane-2,5-dione] was tested, and the IC50 was 30 nM.
